This note sets out measurements from ChEMBL document CHEMBL3217602, “20-O-IngenolEZ, a catalytic topoisomerase II inhibitor, specifically inhibits cell proliferation and induces double-strand DNA breaks in BLM-/- cells” (2011).

The subject of test [1] is DT40. Description: Induction of double-strand DNA breaks in chicken BLM-/- DT40 cell nuclear fraction assessed as gamma-H2AX phosphorylation at 0.9 uM after 24 hrs by immunoblot analysis. The format is functional, cell-based. The conditions noted are these: Gallus gallus. On the technique in general: In western blotting, separated proteins are transferred to a membrane and probed.

The nature of test [2]: Induction of apoptosis in chicken BLM-/- DT40 cells at 0.9 uM after 24 hrs by DAPI staining based immunofluorescence assay. The format is functional, Gallus gallus.
For test [3], the system named is DT40. Description: Induction of apoptosis in chicken BLM-/- DT40 cells at 200 uM after 24 hrs by DAPI staining based immunofluorescence assay. The format is functional, cell-based. The conditions noted are these: Gallus gallus.
Test [4] deals with DT40. Description: Inhibition of chicken BLM-/- DT40 cell proliferation at 200 uM after 2 days by MTT assay. The format is functional, cell-based. The conditions noted are these: Gallus gallus. A general note: Tetrazolium dyes change colour on reduction, which living cells bring about.
Test [5] deals with DT40. As to the kind of experiment: Inhibition of chicken BLM-/- DT40 cell proliferation at 100 uM after 2 days by MTT assay. The format is functional, cell-based. The following applies: Gallus gallus.
Test [6] relates to DT40. Description: Inhibition of chicken WRN-/- DT40 cell proliferation at 2 to 100 uM after 2 days by MTT assay. The format is functional, cell-based. The following applies: Gallus gallus.
In test [7] the test system is DT40. As to the kind of experiment: Inhibition of chicken WRN-/- DT40 cell proliferation at 200 uM after 2 days by MTT assay. The conditions noted are these: Gallus gallus. The format is functional, cell-based.
Test [8] concerns DT40. Description: Inhibition of chicken wild type DT40 cell proliferation at 2 to 100 uM after 2 days by MTT assay. The format is functional, cell-based. The conditions noted are these: Gallus gallus.
Test [9] deals with DT40. As to the kind of experiment: Induction of double-strand DNA breaks in chicken BLM-/- DT40 cell nuclear fraction assessed as gamma-H2AX phosphorylation at 200 uM after 24 hrs by immunoblot analysis. The format is functional, cell-based. The following applies: Gallus gallus.
In test [10] the test system is DT40. Description: Inhibition of chicken BLM-/- DT40 cell proliferation at 2 to 60 uM after 2 days by MTT assay. The format is functional, cell-based. The conditions noted are these: Gallus gallus.
Test [11] can be described thus: (§1) Inhibition of chicken wild type DT40 cell proliferation at 200 uM after 2 days by MTT assay. The conditions noted are these: Gallus gallus, DT40, 48 h. The format is functional.
In test [12] the test system is DT40. Described as §1. The following applies: Gallus gallus. The format is functional.

Calls of active or inactive are those of the source. The calls are words filed in the database; no cut-off is given here.

In the case of `COc1cccc2c1C(=O)c1c(O)c3c(c(O)c1C2=O)C[C@@](O)(C(=O)CO)C[C@@H]3O[C@H]1C[C@H](N)[C@H](O)[C@H](C)O1` [DOXORUBICIN], the result in test [1] was Active. Also, the Activity in [2] came out at 60%.

Regarding `CCCCC/C=C\C=C\C(=O)OCC1=C[C@@H]2C(=O)[C@]3(C=C(C)[C@H](O)[C@@]3(O)[C@@H]1O)[C@H](C)C[C@@H]1[C@H]2C1(C)C`, the result in test [3] and in [9] was Active. Besides, the inhibition entry in test [4] and in test [5] was “Active” each time. Moreover, the inhibition entry in test [6], in [7], in test [8] and in [10] was “inactive” throughout. This compound registered an inhibition at 200 µM in test [11] of 50%.

Regarding `C[C@H]([C@H](C)N1CC(=O)NC(=O)C1)N1CC(=O)NC(=O)C1`, the inhibition result in [4], in test [7] and in test [12] was “Active” each time.

Broadly, the inhibition is the change of the read-out against control, counted positive when it falls.
